Assay results as given in patent US10829473B2, “Modulators of the cystic fibrosis transmembrane conductance regulator protein and methods of use” (AbbVie Overseas S.Á.R.L., priority 2017, dated 2020).
Like-named read-outs stand apart in the source and are kept apart here.

Molecular target: T1, F508delCFTR (Homo sapiens, UniProt P13569, DEL508-508)
T1 construct: expressed in transfected cells; host or cells: CFBE41o- human lung derived epithelial cells (CFBE41o-F508delCFTR-HRP), doxycycline-inducible
T1 sequence (P13569 with tags, fused parts or gaps DEL508-508): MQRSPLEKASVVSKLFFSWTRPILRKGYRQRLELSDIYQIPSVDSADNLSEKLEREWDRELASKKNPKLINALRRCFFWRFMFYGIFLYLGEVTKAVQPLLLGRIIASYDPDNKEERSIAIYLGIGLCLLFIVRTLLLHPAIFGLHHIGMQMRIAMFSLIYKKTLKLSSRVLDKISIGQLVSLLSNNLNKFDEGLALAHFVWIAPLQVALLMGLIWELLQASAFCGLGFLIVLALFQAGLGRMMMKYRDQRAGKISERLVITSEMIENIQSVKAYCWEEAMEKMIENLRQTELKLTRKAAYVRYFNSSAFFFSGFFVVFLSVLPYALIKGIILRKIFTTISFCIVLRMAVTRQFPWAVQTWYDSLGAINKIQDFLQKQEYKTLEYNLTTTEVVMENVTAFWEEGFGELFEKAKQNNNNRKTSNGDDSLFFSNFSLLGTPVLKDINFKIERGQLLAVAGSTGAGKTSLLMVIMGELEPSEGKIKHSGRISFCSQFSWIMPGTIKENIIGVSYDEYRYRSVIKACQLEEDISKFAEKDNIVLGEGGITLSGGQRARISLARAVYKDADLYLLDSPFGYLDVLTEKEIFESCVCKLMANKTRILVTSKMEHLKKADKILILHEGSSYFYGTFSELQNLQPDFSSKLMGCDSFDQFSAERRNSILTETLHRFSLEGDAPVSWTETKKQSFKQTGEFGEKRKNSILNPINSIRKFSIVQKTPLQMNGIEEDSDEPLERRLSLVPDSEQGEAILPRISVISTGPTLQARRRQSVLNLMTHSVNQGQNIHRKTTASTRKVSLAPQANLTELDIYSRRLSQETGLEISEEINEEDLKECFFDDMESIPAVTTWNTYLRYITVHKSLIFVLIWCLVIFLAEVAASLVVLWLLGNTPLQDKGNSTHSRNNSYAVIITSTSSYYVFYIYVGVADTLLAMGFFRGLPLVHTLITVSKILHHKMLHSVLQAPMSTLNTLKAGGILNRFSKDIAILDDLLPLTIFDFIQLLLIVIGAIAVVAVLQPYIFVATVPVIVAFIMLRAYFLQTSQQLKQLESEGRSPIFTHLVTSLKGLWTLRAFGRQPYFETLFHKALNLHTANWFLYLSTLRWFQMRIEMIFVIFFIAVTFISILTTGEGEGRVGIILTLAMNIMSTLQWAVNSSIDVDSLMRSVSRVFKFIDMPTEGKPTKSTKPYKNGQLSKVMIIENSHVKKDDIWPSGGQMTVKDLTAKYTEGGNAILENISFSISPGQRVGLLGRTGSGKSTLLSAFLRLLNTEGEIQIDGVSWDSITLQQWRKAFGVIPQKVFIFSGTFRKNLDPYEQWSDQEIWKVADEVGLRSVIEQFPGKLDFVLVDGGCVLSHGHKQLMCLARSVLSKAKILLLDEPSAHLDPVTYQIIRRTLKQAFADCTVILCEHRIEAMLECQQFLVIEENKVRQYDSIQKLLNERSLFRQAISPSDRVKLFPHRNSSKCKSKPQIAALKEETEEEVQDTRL
Test: Cell Surface Expression-Horse Radish Peroxidase (CSE-HRP) Assay;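 as to EC50 (with co-corrector): co-corrector chromenyl benzoic acid corrector at 2 or 3 µM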;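 as to Maximum % activity (without co-corrector): % of on-plate positive control chromenyl benzoic acid corrector at 2 or 3 µM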
Format: cell-based
Settings: for Maximum % activity (with co-corrector) / Emax: maximum at any tested concentration; for Emax: read-out: Maximum % activity (without co-corrector)
In short: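 Corrector compounds were given as 8-point 3-fold series from 20 or 30 μM, with or without a 2 μM co-corrector, for 18-24 h at 33 °C. Surface HRP was read by luminol luminescence as % of positive control; variable-Hill-slope sigmoidal fitting gave EC50 from triplicate plates.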

[1] = test compound alone, without co-corrector, read-out: EC50 (without co-corrector)
[2] = with co-corrector, read-out: EC50 (with co-corrector)

Row | EC50 [1] [µM] | Maximum % activity (with co-corrector) (with co-corrector) | EC50 [2] [µM] | Emax (without co-corrector) [%] | Structure (SMILES)
1 | < 3 | +++ (≥350) | < 3 | > 150 | COc1ccc(OC)c(C2(C(=O)NS(=O)(=O)c3cccc4ccccc34)CC2)c1 [Example I-28, 1-(2,5-dimethoxyphenyl)-N-(naphthalene-1-sulfonyl)cyclopropane-1-carboxamide]
2 | < 3 | +++ (≥350) | < 3 | > 150 | COc1ccc(OC)c(C2(C(=O)NS(=O)(=O)c3cccc4ncccc34)CC2)c1 [Example I-29, 1-(2,5-dimethoxyphenyl)-N-(quinoline-5-sulfonyl)cyclopropane-1-carboxamide]
3 | < 3 | +++ (≥350) | < 3 | > 150 | CN(C)c1ncc(C(F)(F)F)cc1C1(C(=O)NS(=O)(=O)c2cccc3ccccc23)CC1 [Example I-30, 1-[2-(dimethylamino)-5-(trifluoromethyl)pyridin-3-yl]-N-(naphthalene-1-sulfonyl)cyclopropane-1-carboxamide]
4 | < 3 | +++ (≥350) | < 3 | > 150 | CCOc1ccc(OC)c(C2(C(=O)NS(=O)(=O)c3cccc4ncccc34)CC2)c1 [Example I-31, 1-(5-ethoxy-2-methoxyphenyl)-N-(quinoline-5-sulfonyl)cyclopropane-1-carboxamide]
5 | < 3 | +++ (≥350) | < 3 | > 150 | COc1ccc(OC2CCC2)cc1C1(C(=O)NS(=O)(=O)c2cccc3ncccc23)CC1 [Example I-32, 1-[5-(cyclobutyloxy)-2-methoxyphenyl]-N-(quinoline-5-sulfonyl)cyclopropane-1-carboxamide]
6 | 3 to 10 | +++ (≥350) | < 3 | > 150 | COc1ccc(C2CCC2)cc1C1(C(=O)NS(=O)(=O)c2cccc3nc(C)ccc23)CCC1 [Example I-33, 1-(5-cyclobutyl-2-methoxyphenyl)-N-(2-methylquinoline-5-sulfonyl)cyclobutane-1-carboxamide]
7 | < 3 | +++ (≥350) | < 3 | > 150 | COc1ccc(C(C)(C)C)cc1C1(C(=O)NS(=O)(=O)c2cccc3ncccc23)CC1 [Example I-34, 1-(5-tert-butyl-2-methoxyphenyl)-N-(quinoline-5-sulfonyl)cyclopropane-1-carboxamide]
8 | < 3 | +++ (≥350) | < 3 | > 150 | COc1ccc(C(C)C)cc1C1(C(=O)NS(=O)(=O)c2cccc3ncccc23)CC1 [Example I-35, 1-[2-methoxy-5-(propan-2-yl)phenyl]-N-(quinoline-5-sulfonyl)cyclopropane-1-carboxamide]
9 | < 3 | +++ (≥350) | < 3 | > 150 | COc1cc(F)c(C(C)C)cc1C1(C(=O)NS(=O)(=O)c2cccc3ncccc23)CC1 [Example I-36, 1-[4-fluoro-2-methoxy-5-(propan-2-yl)phenyl]-N-(quinoline-5-sulfonyl)cyclopropane-1-carboxamide]
10 | < 3 | +++ (≥350) | < 3 | > 150 | COc1ccc(C(F)(F)F)cc1C1(C(=O)NS(=O)(=O)c2cccc3ncccc23)CC1 [Example I-37, 1-[2-methoxy-5-(trifluoromethyl)phenyl]-N-(quinoline-5-sulfonyl)cyclopropane-1-carboxamide]
11 | < 3 | +++ (≥350) | < 3 | > 150 | COc1ccc(C23CC(C2)C3)cc1C1(C(=O)NS(=O)(=O)c2cccc3ncccc23)CC1 [Example I-38, 1-[5-(bicyclo[1.1.1]pentan-1-yl)-2-methoxyphenyl]-N-(quinoline-5-sulfonyl)cyclopropane-1-carboxamide]
12 | < 3 | +++ (≥350) | < 3 | > 150 | COc1ccc(C(C)(C)C)cc1C1(C(=O)NS(=O)(=O)c2cccc3c2CCCN3)CC1 [Example I-39, 1-(5-tert-butyl-2-methoxyphenyl)-N-(1,2,3,4-tetrahydroquinoline-5-sulfonyl)cyclopropane-1-carboxamide]
13 | < 3 | +++ (≥350) | < 3 | > 150 | COc1ccc(C)c(OC)c1C1(C(=O)NS(=O)(=O)c2cccc3ccccc23)CC1 [Example I-40, 1-(2,6-dimethoxy-3-methylphenyl)-N-(naphthalene-1-sulfonyl)cyclopropane-1-carboxamide]
14 | < 3 | +++ (≥350) | < 3 | > 150 | COc1ccc(C)c(OC)c1C1(C(=O)NS(=O)(=O)c2cccc3ncccc23)CC1 [Example I-41, 1-(2,6-dimethoxy-3-methylphenyl)-N-(quinoline-5-sulfonyl)cyclopropane-1-carboxamide]
15 | < 3 | +++ (≥350) | < 3 | > 150 | COc1ccc(C)c(OC)c1C1(C(=O)NS(=O)(=O)c2cccc3[nH]ccc23)CC1 [Example I-42, 1-(2,6-dimethoxy-3-methylphenyl)-N-(1H-indole-4-sulfonyl)cyclopropane-1-carboxamide]
16 | < 3 | +++ (≥350) | < 3 | > 150 | COc1ccc(C)c(OC)c1C1(C(=O)NS(=O)(=O)c2cccc3nc(C)ccc23)CC1 [Example I-43, 1-(2,6-dimethoxy-3-methylphenyl)-N-(2-methylquinoline-5-sulfonyl)cyclopropane-1-carboxamide]
17 | < 3 | +++ (≥350) | < 3 | > 150 | COc1ccc(C)cc1C1(C(=O)NS(=O)(=O)c2cccc3ncccc23)CC1 [Example I-44, 1-(2-methoxy-5-methylphenyl)-N-(quinoline-5-sulfonyl)cyclopropane-1-carboxamide]
18 | < 3 | +++ (≥350) | < 3 | > 150 | CCOc1cccc(OC)c1C1(C(=O)NS(=O)(=O)c2cccc3ncccc23)CC1 [Example I-45, 1-(2-ethoxy-6-methoxyphenyl)-N-(quinoline-5-sulfonyl)cyclopropane-1-carboxamide]
19 | < 3 | +++ (≥350) | < 3 | > 150 | COc1cccc(OCC2CC2)c1C1(C(=O)NS(=O)(=O)c2cccc3ncccc23)CC1 [Example I-46, 1-[2-(cyclopropylmethoxy)-6-methoxyphenyl]-N-(quinoline-5-sulfonyl)cyclopropane-1-carboxamide]
20 | < 3 | +++ (≥350) | < 3 | > 150 | COc1ccc(C)c(C)c1C1(C(=O)NS(=O)(=O)c2cccc3ncccc23)CC1 [Example I-47, 1-(6-methoxy-2,3-dimethylphenyl)-N-(quinoline-5-sulfonyl)cyclopropane-1-carboxamide]
21 | < 3 | +++ (≥350) | < 3 | > 150 | COc1ccc(C2CC2)c(C)c1C1(C(=O)NS(=O)(=O)c2cccc3ncccc23)CC1 [Example I-48, 1-(3-cyclopropyl-6-methoxy-2-methylphenyl)-N-(quinoline-5-sulfonyl)cyclopropane-1-carboxamide]
22 | < 3 | +++ (≥350) | < 3 | > 150 | COc1ccc(C)cc1C1(C(=O)NS(=O)(=O)c2cccc3[nH]ccc23)CC1 [Example I-49, N-(1H-indole-4-sulfonyl)-1-(2-methoxy-5-methylphenyl)cyclopropane-1-carboxamide]
23 | < 3 | +++ (≥350) | < 3 | > 150 | COc1cccc(C(C)C)c1C1(C(=O)NS(=O)(=O)c2cccc3ncccc23)CC1 [Example I-50, 1-[2-methoxy-6-(propan-2-yl)phenyl]-N-(quinoline-5-sulfonyl)cyclopropane-1-carboxamide]
24 | < 3 | +++ (≥350) | < 3 | > 150 | COc1cccc(C2CCC2)c1C1(C(=O)NS(=O)(=O)c2cccc3ncccc23)CC1 [Example I-51, 1-(2-cyclobutyl-6-methoxyphenyl)-N-(quinoline-5-sulfonyl)cyclopropane-1-carboxamide]
25 | < 3 | +++ (≥350) | < 3 | > 150 | COc1ccc(C(C)(C)OC)cc1C1(C(=O)NS(=O)(=O)c2cccc3ncccc23)CC1 [Example I-52, 1-[2-methoxy-5-(2-methoxypropan-2-yl)phenyl]-N-(quinoline-5-sulfonyl)cyclopropane-1-carboxamide]
26 | 3 to 10 | +++ (≥350) | < 3 | > 150 | COc1ccc(C)cc1C1(C(=O)NS(=O)(=O)c2cccc3[nH]ncc23)CC1 [Example I-53, N-(1H-indazole-4-sulfonyl)-1-(2-methoxy-5-methylphenyl)cyclopropane-1-carboxamide]
27 | < 3 | +++ (≥350) | < 3 | > 150 | COc1ccc(C2CCC2)cc1C1(C(=O)NS(=O)(=O)c2cccc3c2CCN3)CC1 [Example I-54, 1-(5-cyclobutyl-2-methoxyphenyl)-N-(2,3-dihydro-1H-indole-4-sulfonyl)cyclopropane-1-carboxamide]
